From ChEMBL document CHEMBL5029162, “4-Pyridone-3-carboxylic acid as a benzoic acid bioisostere: Design, synthesis, and evaluation of EP300/CBP histone acetyltransferase inhibitors” (Bioorg Med Chem Lett, 2021)

Columns and labels:
[1] = biological target: Histone acetyltransferase KAT6B (Homo sapiens, UniProt Q8WYB5); assay: Inhibition of MYST4 (unknown origin)
[2] = biological target: Histone acetyltransferase KAT2A (Homo sapiens, UniProt Q92830); assay: Inhibition of GCN5 (unknown origin)
CREB-binding protein = CREB-binding protein (Homo sapiens, UniProt Q92793); assay: Inhibition of CBP (unknown origin)

Sequence of Histone acetyltransferase KAT2A (Q92830 whole entry): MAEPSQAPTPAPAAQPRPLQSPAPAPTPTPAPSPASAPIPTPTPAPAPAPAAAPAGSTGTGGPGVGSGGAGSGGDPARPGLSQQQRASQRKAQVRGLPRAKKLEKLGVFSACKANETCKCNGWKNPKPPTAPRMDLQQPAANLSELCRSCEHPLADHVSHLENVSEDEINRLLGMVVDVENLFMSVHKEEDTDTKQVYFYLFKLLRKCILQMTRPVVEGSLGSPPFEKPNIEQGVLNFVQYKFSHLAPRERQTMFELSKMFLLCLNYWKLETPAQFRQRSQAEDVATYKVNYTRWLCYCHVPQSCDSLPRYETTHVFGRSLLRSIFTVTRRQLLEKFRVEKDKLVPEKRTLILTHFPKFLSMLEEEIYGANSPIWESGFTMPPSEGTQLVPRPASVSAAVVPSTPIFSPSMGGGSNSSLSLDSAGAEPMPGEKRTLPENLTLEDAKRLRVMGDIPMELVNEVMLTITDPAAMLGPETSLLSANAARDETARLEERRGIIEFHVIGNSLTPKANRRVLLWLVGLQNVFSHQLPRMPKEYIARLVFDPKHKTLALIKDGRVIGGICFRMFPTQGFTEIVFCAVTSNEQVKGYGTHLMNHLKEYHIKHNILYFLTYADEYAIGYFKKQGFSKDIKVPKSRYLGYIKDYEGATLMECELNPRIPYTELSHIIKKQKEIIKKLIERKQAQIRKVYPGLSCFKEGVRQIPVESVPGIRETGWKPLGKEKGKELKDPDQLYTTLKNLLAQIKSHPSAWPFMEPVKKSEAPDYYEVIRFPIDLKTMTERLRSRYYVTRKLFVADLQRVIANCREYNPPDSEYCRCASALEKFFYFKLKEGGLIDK
Sequence of Histone acetyltransferase KAT6B (Q8WYB5 whole entry): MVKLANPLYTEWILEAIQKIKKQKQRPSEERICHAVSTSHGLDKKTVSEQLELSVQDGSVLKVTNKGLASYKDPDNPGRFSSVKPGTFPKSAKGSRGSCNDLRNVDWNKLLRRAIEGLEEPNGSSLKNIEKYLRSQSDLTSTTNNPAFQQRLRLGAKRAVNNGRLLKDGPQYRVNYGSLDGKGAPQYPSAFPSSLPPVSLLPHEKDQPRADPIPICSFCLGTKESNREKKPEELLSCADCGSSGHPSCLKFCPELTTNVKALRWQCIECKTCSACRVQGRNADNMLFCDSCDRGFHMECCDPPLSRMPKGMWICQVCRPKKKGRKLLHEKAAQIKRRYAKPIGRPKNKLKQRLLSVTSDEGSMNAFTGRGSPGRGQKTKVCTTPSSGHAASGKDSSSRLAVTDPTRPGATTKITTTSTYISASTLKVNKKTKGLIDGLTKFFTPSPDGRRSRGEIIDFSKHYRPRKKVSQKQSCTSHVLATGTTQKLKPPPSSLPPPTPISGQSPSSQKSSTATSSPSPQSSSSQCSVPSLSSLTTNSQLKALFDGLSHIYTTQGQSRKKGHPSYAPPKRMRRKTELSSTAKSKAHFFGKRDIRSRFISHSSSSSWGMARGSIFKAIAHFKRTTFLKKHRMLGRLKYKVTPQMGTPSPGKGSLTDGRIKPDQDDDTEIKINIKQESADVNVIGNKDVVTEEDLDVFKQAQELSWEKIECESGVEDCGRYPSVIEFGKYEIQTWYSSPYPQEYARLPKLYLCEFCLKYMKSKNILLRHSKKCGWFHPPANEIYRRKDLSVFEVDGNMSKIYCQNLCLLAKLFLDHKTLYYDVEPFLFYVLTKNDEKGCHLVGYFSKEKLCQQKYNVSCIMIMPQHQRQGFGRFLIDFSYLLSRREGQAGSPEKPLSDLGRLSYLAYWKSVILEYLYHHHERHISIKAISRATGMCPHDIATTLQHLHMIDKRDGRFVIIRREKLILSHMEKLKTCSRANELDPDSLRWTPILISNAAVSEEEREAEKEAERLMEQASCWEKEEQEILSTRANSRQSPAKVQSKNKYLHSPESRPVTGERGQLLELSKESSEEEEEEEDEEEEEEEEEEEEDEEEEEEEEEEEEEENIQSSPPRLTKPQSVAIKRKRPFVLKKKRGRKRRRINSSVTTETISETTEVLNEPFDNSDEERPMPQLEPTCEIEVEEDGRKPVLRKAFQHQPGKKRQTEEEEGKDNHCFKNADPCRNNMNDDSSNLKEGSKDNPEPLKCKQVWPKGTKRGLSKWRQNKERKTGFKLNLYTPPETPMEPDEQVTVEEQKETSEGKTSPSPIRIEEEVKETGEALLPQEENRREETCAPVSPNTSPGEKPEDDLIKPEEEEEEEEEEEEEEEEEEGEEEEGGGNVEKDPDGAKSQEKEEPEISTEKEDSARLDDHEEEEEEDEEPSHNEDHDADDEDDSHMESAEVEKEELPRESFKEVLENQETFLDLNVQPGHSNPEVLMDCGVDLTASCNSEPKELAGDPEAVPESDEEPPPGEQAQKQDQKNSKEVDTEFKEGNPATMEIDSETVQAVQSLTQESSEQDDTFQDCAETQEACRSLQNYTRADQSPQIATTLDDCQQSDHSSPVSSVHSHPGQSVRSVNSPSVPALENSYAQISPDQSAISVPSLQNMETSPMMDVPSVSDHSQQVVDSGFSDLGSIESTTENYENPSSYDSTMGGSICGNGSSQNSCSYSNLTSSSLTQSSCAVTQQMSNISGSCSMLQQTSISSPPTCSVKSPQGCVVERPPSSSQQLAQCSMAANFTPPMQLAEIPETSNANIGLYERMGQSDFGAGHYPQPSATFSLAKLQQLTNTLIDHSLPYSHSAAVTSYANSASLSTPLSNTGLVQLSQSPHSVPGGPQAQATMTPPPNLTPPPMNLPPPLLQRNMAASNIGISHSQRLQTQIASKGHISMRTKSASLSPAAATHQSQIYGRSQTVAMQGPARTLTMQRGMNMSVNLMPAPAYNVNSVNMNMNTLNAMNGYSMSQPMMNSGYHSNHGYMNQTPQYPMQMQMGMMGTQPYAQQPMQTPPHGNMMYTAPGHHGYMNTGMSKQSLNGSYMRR

IC50 [1] [µM] | IC50 [2] [µM] | IC50 (CREB-binding protein) [µM] | SMILES
> 50 | > 50 | 3.4 | COC1=C(Cc2ccc(-c3cn(C)cc(C(=O)O)c3=O)s2)C(=O)N(c2ccc3ccccc3c2)C1
> 50 | > 50 | 1.3 | COC1=C(Cc2ccc(-c3cn(Cc4ccccc4)cc(C(=O)O)c3=O)s2)C(=O)N(c2ccc3ccccc3c2)C1
